Data from patent US11053468B2, “Multiwell cell culture system having rotating shafts for mixing culture media and method of use thereof” (The Johns Hopkins University, priority 2015, dated 2021).

What was measured:
[1] = test system: human developing cerebral cortex organoids; assay: Toxin screening of BPA in the 12-well culture system, proliferation of neuronal precursor cells; format: cell-based; details: different concentrations of BPA
Procedure: Culture conditions were systemically tested to optimize protocols. Additionally, screening was performed to test the effects of Bisphenol A (BPA) on neurogenesis in the organoid system.
Toxin screening was performed using the 12-well culture system. Images of the effect of different concentrations of BPA on human developing cerebral cortex organoids were taken (data not shown).

forebrain organoids [2] = assay: Long-term BPA treatment of forebrain organoids (days 14 to 28), relative VZ thickness; format: cell-based, human; details: treatment from days 14 to 28; forebrain organoids in SpinΩ
Procedure: (§1) The apparent homogeneity of forebrain organoids, small volume per condition, and multi-well format of SpinΩ comprise a platform that is amenable to chemical compound testing. As a proof of principle, we tested the effect of Bisphenol A (BPA), which is commonly found in household plastic products and is known to affect rodent neural development.
Forebrain organoids were grown using the protocol described above. For the long-term BPA treatment experiment, forebrain organoids at day 14 from the same batch were distributed randomly into separate wells within SpinQ and treated with different concentrations of BPA (Sigma). BPA was dissolved in sequential dilutions in differentiation media with 0.05% methanol, which was also added in the control condition. Media containing BPA was replaced every other day until analysis on day 28. […] Quantification was conducted by investigators blind to culture conditions.
Organoids grown from the “intrinsic protocol” and forebrain protocol were immunostained for SOX2, TUJ1 and CTIP2 at days 14 and 28. […] The length for VZ and outer layer was measured in ImageJ™ software. […] Relative thicknesses for VZ, SVZ and CP were calculated by the ratio to total thickness from ventricular to pial surface.

[3] = test system: NPCs in forebrain organoids; assay: Acute BPA treatment of forebrain organoids (24 hr), EdU pulse-labeling and PH3 immunostaining; format: cell-based, human; details: acute treatment with higher BPA concentrations for 24 hr
Procedure: as §1
For the acute BPA treatment experiment, forebrain organoids were grown to day 28 and treated with corresponding concentrations of BPA for 24 hr. At day 29, the culture media was replaced with fresh media and washed 3 times to remove residual BPA. Organoids were then pulsed with 10 μM EdU for 2 hr. The media was then replaced and organoids were washed 3 times with fresh media. At day 30, organoids were fixed for immunohistochemistry and EdU detection using Click-iT® EdU Alexa Fluor® 488 Imaging Kit (ThermoFisher C10337) according to the manufacturer's manual, followed by immunostaining for SOX2 and PH3. Images were acquired with a Zeiss' LSM 700 Confocal system at 25× magnification. Quantification was performed by counting the number of EdU and PH3+ nuclei within SOX2+ ventricular structures that were defined by neural tube-like morphology. EdU and PH3 densities were normalized to the area of ventricular structures measured in ImageJ software. Quantification was conducted by investigators blind to culture conditions.

forebrain organoids [4] = assay: Signaling-molecule treatment of embryoid bodies during the Matrigel stage, activated caspase-3 (CAS3) immunostaining; format: cell-based, human; details: for number of CAS3+ cells at day 14: combined treatment with the three factors CHIR99021, WNT3A and SB-431542 during the Matrigel stage
Text: To reduce tissue heterogeneity, we pre-patterned embryoid bodies to the fate of a specific brain region. We first treated human iPSCs with dual SMAD inhibitors (dorsomorphin and A-83) for 7 days and then embedded embryoid bodies in Matrigel for another 7 days, followed by Matrigel removal and spinning in SpinΩ (FIG. 12). Compared to the “intrinsic protocol,” we could reliably generate organoids from multiple iPSC lines with reduced heterogeneity in organoid shape and size (data not shown). However, there was significant cell death within organoids, as shown by activated caspase-3 (CAS3) immune-staining (data not shown). We then tested combinations of different signaling molecules for various durations. […] Later, we determined that the WNT3A contribution was minimal, likely because WNT3A and CHIR99021 activate the same downstream signaling pathway (data not shown). At day 14, well-defined polarized neuroepithelium-like structures resembled neural tubes, with a nearly pure population of NESTIN+SOX2+ NPCs and expression of adherent junction markers (b-CATENIN and PKC1) and proliferation marker phosphohistone H3 (PH3) near the ventricular surface (data not shown). […] Upon spinning in SpinΩ, organoids developed into multi-layer stratified structures, composed of SOX2+NPCs, TBR2+ intermediate progenitor cells (IPCs), and CTIP2+ neurons (data not shown). With a small volume, it became affordable to supplement media with growth factors at later stages (data not shown).
To generate forebrain-specific organoids, human iPSC colonies were detached 7 days after passage with Collagenase Type IV, washed with fresh stem cell medium and cultured in a 15 ml conical tube. On day 1, detached and washed iPSC colonies were transferred to an Ultra-Low attachment 6-well plate (Corning Costar), containing 3 ml of stem cell medium (without FGF-2), plus 2 μM Dorsomorphine (Sigma) and 2 μM A83-01 (Tocris). On days 5-6, half of the medium was replaced with induction medium consisting of DMEM:F12, 1×N2 Supplement (Invitrogen), 10 μg/ml Heparin (Sigma), 1× Penicillin/Streptomycin, 1× Non-essential Amino Acids, 1× Glutamax, 4 ng/ml WNT-3A (R&D Systems), 1 μM CHIR99021 (Cellagentech), and 1 μM SB-431542 (Cellagentech). On day 7, organoids were embedded in Matrigel (BD Biosciences) and continued to grow in induction medium for 6 more days. On day 14, embedded organoids were mechanically dissociated from Matrigel by pipetting up and down onto the plate with a 5 ml pipette tip. Typically, 10-20 organoids were transferred to each well of a 12-well spinning bioreactor (FIGS. 1-11) containing differentiation medium, consisting of DMEM:F12, 1×N2 and B27 Supplements (Invitrogen), 1× Penicillin/Streptomycin, 1×2-Mercaptoenthanol, 1× Non-essential Amino Acids, 2.5 μg/ml Insulin (Sigma). […]

## CC(C)(c1ccc(O)cc1)c1ccc(O)cc1 [BPA, Bisphenol A]
[1]
  proliferation rate of neuronal precursor cells in human organoids: dose-dependent effect
Forebrain organoids [2]
  relative VZ thickness at day 28: dose-dependent decrease
[3]
  density of PH3+ NPCs: decreased density
[3]; then EdU pulse
  density of EdU+ NPCs: decreased density

## Cc1c[nH]c(-c2cnc(NCCNc3ccc(C#N)cn3)nc2-c2ccc(Cl)cc2Cl)n1 [CHIR99021]
Forebrain organoids [4]
  number of CAS3+ cells at day 14: drastically reduced

## NC(=O)c1ccc(-c2nc(-c3ccc4c(c3)OCO4)c(-c3ccccn3)[nH]2)cc1 [SB-431542]
Forebrain organoids [4]
  number of CAS3+ cells at day 14: drastically reduced

B1: WNT3A: recombinant WNT3A protein (protein, UniProt P56704 19-352, looked up)
Protein Wnt-3a: SYPIWWSLAVGPQYSSLGSQPILCASIPGLVPKQLRFCRNYVEIMPSVAEGIKIGIQECQHQFRGRRWNCTTVHDSLAIFGPVLDKATRESAFVHAIASAGVAFAVTRSCAEGTAAICGCSSRHQGSPGKGWKWGGCSEDIEFGGMVSREFADARENRPDARSAMNRHNNEAGRQAIASHMHLKCKCHGLSGSCEVKTCWWSQPDFRAIGDFLKDKYDSASEMVVEKHRESRGWVETLRPRYTYFKVPTERDLVYYEASPNFCEPNPETGSFGTRDRTCNVSSHGIDGCDLLCCGRGHNARAERRREKCRCVFHWCCYVSCQECTRVYDVHTCK
Forebrain organoids [4]
  number of CAS3+ cells at day 14: drastically reduced
Forebrain organoids [4]; within the three-factor treatment, WNT3A and CHIR99021 activate the same downstream pathway
  contribution to the reduction of CAS3+ cells: minimal
